Ends that are not written are not given here.

The first assay relates to monoclonal antibody MV-002. Kind of assay: In vitro binding assay (ELISA), BSA-coupled peptides, parental antibody MV-002. More on the design: species or system C57/B16 mice. Particulars: Table 1 (MV-002); peptide-BSA on plate, compared to original epitope. On the procedure:
Peptides derived from Phage Display as well as variants thereof were coupled to BSA and bound to ELISA plates (1 μM; as indicated in the respective figures) and subsequently incubated with the monoclonal antibody that was used for the screening procedure to analyse binding capacity of identified peptides.
Legend to Table 1: the binding capacity is coded by the following binding code: 1:X describes the dilution factor of the parental AB. Ac- . . . indicates acetylated AA.
GELYFRAC [p4677]: the “Binding Capacity” value is reported as 3 (strong binding :>320000).

As to AGEIYFERC [p4806], the “Binding Capacity” value was 1 (weak binding :<40000). In the case of GQIRFDHC [p4669], the “Binding Capacity” value was 3 (strong binding :>320000). Turning to SGEIYFERC [p4805], the “Binding Capacity” value is 1 (weak binding :<40000). With GDLKFPLC [p4683], the “Binding Capacity” value is on record as 3 (strong binding :>320000). Consider GELFFPKC [p4685], for which the “Binding Capacity” value is 3 (strong binding :>320000).

Turning to GEIRFELC [p4796], the “Binding Capacity” value is given as 2 (medium binding :40000-320000). Same read-out and setting: as for GQIWFISC [p4666], the figure is 1 (weak binding :<40000); as for GTLIFHHC [p4695], 2 (medium binding :40000-320000). AIPLFVMC [p4682]: the “Binding Capacity” value is reported as 1 (weak binding :<40000).

Take GELQFPPC [p4672]: the “Binding Capacity” value is listed as 3 (strong binding :>320000). GTIFFRDC [p4692]: the “Binding Capacity” value was 1 (weak binding :<40000). The same measure, in the same setting: for GQIIFQSC [p4668] the value was 2 (medium binding :40000-320000). On to GEMQFFIC [p4676], for which the “Binding Capacity” value is recorded as 3 (strong binding :>320000). With KLPLFVMC [p4691], the “Binding Capacity” value was 1 (weak binding :<40000). Regarding GQLKFPFC [p4690], the “Binding Capacity” value is listed as 3 (strong binding :>320000). On to GQILFPVC [p4684], for which the “Binding Capacity” value is listed as 3 (strong binding :>320000). Take GQIMFPRC [p4686]: the “Binding Capacity” value is recorded as 3 (strong binding :>320000). Turning to CGEIYFER [p4807], the “Binding Capacity” value was 1 (weak binding :<40000). In the case of GQIQFPLC [p4697], the “Binding Capacity” value was 3 (strong binding :>320000). As to GQIKFAQC [p4694], the “Binding Capacity” value was 3 (strong binding :>320000). Consider Ac-GEIYFERC [p4804], for which the “Binding Capacity” value is 2 (medium binding :40000-320000).

Take GSLFFWPC [p4688]: the “Binding Capacity” value is reported as 2 (medium binding :40000-320000).

Regarding GEIRFALC [p4678], the “Binding Capacity” value is 3 (strong binding :>320000).

Consider GEMWFALC [p4671], for which the “Binding Capacity” value is on record as 3 (strong binding :>320000). Turning to HMRMYFEC [p4687], the “Binding Capacity” value is recorded as 3 (strong binding :>320000). Regarding GELFFEKC [p4795], the “Binding Capacity” value is 2 (medium binding :40000-320000). Turning to GMIVFPHC [p4679], the “Binding Capacity” value is 3 (strong binding :>320000). For the molecule QLPLFVLC [p4700], the “Binding Capacity” value is recorded as 1 (weak binding :<40000).

The target of another assay is monoclonal antibody MV-001. Kind of assay: ELISA on peptide-BSA; code 3 = strong binding, OD halfmax 1:>20000.
Conditions: not given
Background: An ELISA detects its analyte on a solid surface through an enzyme-linked reagent.
NELRHSTC [p4701]: the OD halfmax 1:X (dilution factor of the parental antibody at half-maximal OD) (dilutionfactor(1:x)) was more than 20000.

Take ELFKHHLC [p4714]: the OD halfmax 1:X (dilution factor of the parental antibody at half-maximal OD) (dilutionfactor(1:x)) was more than 20000.

Regarding SEFSHSSC [p4712], the OD halfmax 1:X (dilution factor of the parental antibody at half-maximal OD) (dilutionfactor(1:x)) is more than 20000.

As for QLFKHSPC [p4747], the OD halfmax 1:X (dilution factor of the parental antibody at half-maximal OD) (dilutionfactor(1:x)) is more than 20000. As to SELRHSTC [p4744], the OD halfmax 1:X (dilution factor of the parental antibody at half-maximal OD) (dilutionfactor(1:x)) was more than 20000. As to YEFRHAQC [p4748], the OD halfmax 1:X (dilution factor of the parental antibody at half-maximal OD) (dilutionfactor(1:x)) was more than 20000.

As to THMEFRRC [p4745], the OD halfmax 1:X (dilution factor of the parental antibody at half-maximal OD) (dilutionfactor(1:x)) is more than 20000. ATPLFRHC [p4723]: the OD halfmax 1:X (dilution factor of the parental antibody at half-maximal OD) (dilutionfactor(1:x)) was more than 20000.

As for LHIPFRHC [p4726], the OD halfmax 1:X (dilution factor of the parental antibody at half-maximal OD) (dilutionfactor(1:x)) was more than 20000. With SAGSFRHC [p4710], the OD halfmax 1:X (dilution factor of the parental antibody at half-maximal OD) (dilutionfactor(1:x)) is more than 20000. With EFLRHTLC [p4722], the OD halfmax 1:X (dilution factor of the parental antibody at half-maximal OD) (dilutionfactor(1:x)) is more than 20000.

In the case of SNSEFRRC [p4743], the OD halfmax 1:X (dilution factor of the parental antibody at half-maximal OD) (dilutionfactor(1:x)) was more than 20000. The same measure, in the same setting: for GEMRHQPC [p4702] the value was more than 20000.

Another assay relates to monoclonal antibody (DAEFRH-peptide-specific). Kind of assay: Inhibition assay (ELISA): mimotope peptides compete with plate-bound original epitope DAEFRH for recognition by the monoclonal antibody. Type of assay: binding, Mice. Set-up: key to inhibition (s/m/—): s: strong inhibition; m: moderate inhibition; —: -: no inhibition. Particulars: competition ELISA, plate-bound DAEFRH-C-BSA; text to FIGS. 2-9.
Text: Mice are vaccinated with the 6mer peptide DAEFRH (natural N-terminal Aβ42 sequence) linked to the protein bovine serum albumin BSA (to make use of the hapten-carrier-effect), emulsified in CFA (first injection) and IFA (booster injections). DAEFRH-peptide-specific, antibody-producing hybridomas are detected by ELISA (DAEFRH-peptide-coated ELISA plates).
FIGS. 2 and 3 describe the results of inhibition assays performed with mimotope peptides included in and obtained from the 5 libraries (as described in WO 2004/062556). The mimotope peptides compete with the original epitope for recognition by the monoclonal antibody. Original epitope and mimotope peptides contain an additional C at the C-terminus for coupling to a protein carrier (if desired).
(§1) After blocking with PBS/BSA 1% (200 μl/well, 12 h, 4° C.), the plates are washed 3× times with PBS/Tween. Then, biotinylated monoclonal antibody (1:2000, 50 μl/well) and peptides (50 μl/well) at 50, 5, 0.5, 0.05, 0.005, and 0.0005 μg/ml are added for 20 min. at 37° C. The plates are washed 3× times with PBS/Tween and are incubated with horseradish peroxidase (HRP)-labeled streptavidin (100 μl/well, 30 min, RT). The plates are washed 5× times with PBS/Tween and are incubated with ABTS+H2O2(0.1% w/v, 10 to 45 min) and the reaction is stopped with citric acid followed by photometric evaluation (wavelength 405 nm).
as §1, with “different concentrations” for “50, 5, 0.5, 0.05, 0.005, and 0.0005 μg/ml”, “ABTS+H2O2 (0.1%” for “ABTS+H2O2(0.1%”
as §1, with “different concentrations” for “50, 5, 0.5, 0.05, 0.005, and 0.0005 μg/ml”
For the molecule DIGWRG (DIGWRGC) [Peptide 3011], the “inhibition of binding of the monoclonal antibody to the original epitope” value (shortened to “inhibition of binding … to the original epitope”) is on record as “not inhibitory”. For the molecule SWEFRLY [Peptide 4018], the “inhibition of binding … to the original epitope” value is “strongly block epitope recognition”. On to SAEFRTQ [Peptide 4015], for which the “inhibition of binding … to the original epitope” value is “strongly block epitope recognition”. Turning to `CC[C@H](C)[C@H](NC(=O)[C@H](CCCNC(=N)N)NC(=O)[C@H](CC(C)C)NC(=O)[C@H](CCC(=O)O)NC(=O)[C@H](Cc1c[nH]c2ccccc12)NC(=O)[C@@H](N)CC(=O)O)C(=O)N[C@@H](CS)C(=O)O` [Peptide 3002, DWELRI], the “inhibition of binding … to the original epitope” value was “block epitope recognition”.

In the case of `CC[C@H](C)[C@H](NC(=O)[C@H](CCCCN)NC(=O)[C@H](CC(C)C)NC(=O)[C@H](CCC(=O)O)NC(=O)[C@H](CCCNC(=N)N)NC(=O)[C@@H](N)CC(=O)O)C(=O)N[C@@H](CS)C(=O)O` [Peptide 1237, DRELKI], the “inhibition of binding … to the original epitope” value is recorded as “block epitope recognition”.

Take SAEFRAT [Peptide 4016]: the “inhibition of binding … to the original epitope” value is “strongly block epitope recognition”. Same read-out and setting: for `CC[C@H](C)[C@H](NC(=O)[C@H](CCCNC(=N)N)NC(=O)[C@H](CC(C)C)NC(=O)[C@H](CCC(=O)O)NC(=O)[C@H](CCCNC(=N)N)NC(=O)[C@@H](N)CC(=O)O)C(=O)N[C@@H](CS)C(=O)O` [Peptide 1235, DRELRI] the value was “block epitope recognition”; for GSEFRDY [Peptide 4013], “moderately inhibit”. On the same count and under the same terms, as for DNEFRSP [Peptide 4012], the entry is “moderately inhibit”. `CC[C@H](C)[C@H](NC(=O)[C@H](CCCCN)NC(=O)[C@H](CC(C)C)NC(=O)[C@H](CCC(=O)O)NC(=O)[C@H](CCCCN)NC(=O)[C@@H](N)CC(=O)O)C(=O)N[C@@H](CS)C(=O)O` [Peptide 1236, DKELKI]: the “inhibition of binding … to the original epitope” value is recorded as “block epitope recognition”.

Staying with this assay, now noted: peptide lists of Example 4.
Regarding SWEFRLY [Peptide 4018], the “inhibition (s/m/—)” value is “s”. For the molecule SAEFRTQ [Peptide 4015], the “inhibition (s/m/—)” value is “s”. Consider SAEFRAT [Peptide 4016], for which the “inhibition (s/m/—)” value is on record as “s”. GSEFRDY [Peptide 4013]: the “inhibition (s/m/—)” value is given as “m”. With DNEFRSP [Peptide 4012], the “inhibition (s/m/—)” value is on record as “s”.

The same assay, now with this note: summary Tables 1 and 2 (Examples 2, 3).
Consider DIGWRG (DIGWRGC) [Peptide 3011], for which the “Inhibitory capacity of mimotopes” value is given as “none”. For the molecule `CC[C@H](C)[C@H](NC(=O)[C@H](CCCNC(=N)N)NC(=O)[C@H](CC(C)C)NC(=O)[C@H](CCC(=O)O)NC(=O)[C@H](Cc1c[nH]c2ccccc12)NC(=O)[C@@H](N)CC(=O)O)C(=O)N[C@@H](CS)C(=O)O` [Peptide 3002, DWELRI], the “Inhibitory capacity of mimotopes” value was “intermediate”. For `CC[C@H](C)[C@H](NC(=O)[C@H](CCCCN)NC(=O)[C@H](CC(C)C)NC(=O)[C@H](CCC(=O)O)NC(=O)[C@H](CCCNC(=N)N)NC(=O)[C@@H](N)CC(=O)O)C(=O)N[C@@H](CS)C(=O)O` [Peptide 1237, DRELKI], the “Inhibitory capacity of mimotopes” value is recorded as “weak”. In the case of `CC[C@H](C)[C@H](NC(=O)[C@H](CCCNC(=N)N)NC(=O)[C@H](CC(C)C)NC(=O)[C@H](CCC(=O)O)NC(=O)[C@H](CCCNC(=N)N)NC(=O)[C@@H](N)CC(=O)O)C(=O)N[C@@H](CS)C(=O)O` [Peptide 1235, DRELRI], the “Inhibitory capacity of mimotopes” value is listed as “strong”. On the same count and under the same terms, for `N=C(N)NCCC[C@H](NC(=O)[C@H](Cc1ccccc1)NC(=O)[C@H](CCC(=O)O)NC(=O)[C@H](Cc1ccccc1)NC(=O)[C@@H](N)CO)C(=O)NCC(=O)N[C@@H](CS)C(=O)O` [Peptide 3009, SFEFRG] the value was “weak”; for `CC[C@H](C)[C@H](NC(=O)[C@H](CCCCN)NC(=O)[C@H](CC(C)C)NC(=O)[C@H](CCC(=O)O)NC(=O)[C@H](CCCCN)NC(=O)[C@@H](N)CC(=O)O)C(=O)N[C@@H](CS)C(=O)O` [Peptide 1236, DKELKI], “weak”.

(Values after patent US20130287807A1, “COMPOUNDS FOR TREATING SYMPTOMS ASSOCIATED WITH PARKINSON'S DISEASE” (priority 2008, published 2013).)
